Reference: PMC4146477, “Synthesis and Antimycobacterial and Photosynthesis-Inhibiting Evaluation of 2-[(E)-2-Substituted-ethenyl]-1,3-benzoxazoles” (The Scientific World Journal, 2014)
≈ marks a conversion by molar mass, not a printed value. Where “and” joins values, the source holds several entries; their conditions need not be identical. Identical values can stand only once. Like-named read-outs stand apart in the source and are kept apart here.

What was measured:
[1] = Lipophilicity determination by RP-HPLC (capacity factor k / log k); type: physicochemical; settings: C18, MeOH 70% / H2O 30%, isocratic
Text: A Waters Alliance 2695 XE HPLC separation module and a Waters Photodiode Array Detector 2996 (Waters Corp., Milford, MA, USA) were used. A Symmetry C18 5 μm, 4.6 × 250 mm, Part No. WAT054275 (Waters Corp., Milford, MA, USA) chromatographic column was used. The HPLC separation process was monitored by Empower 2 Chromatography Data Software, Waters 2009 (Waters Corp., Milford, MA, USA). A mixture of MeOH p.a. (70%) and H2O-HPLC - Mili-Q Grade (30%) was used as a mobile phase. The total flow of the column was 1.0 mL/min, injection volume, 30 μL, column temperature, 45°C, and sample temperature, 10°C. The detection wavelength of 210 nm was chosen. The KI methanolic solution was used for the dead time (t D) determination. Retention times (t R) were measured in minutes. The capacity factors k were calculated using the Empower 2 Chromatography Data Software according to formula k = (t R − t D)/t D, where t R is the retention time of the solute, whereas t D denotes the dead time obtained using an unretained analyte.
Lipophilicity is a property that has a major effect on ADME/Tox properties as well as pharmacological activity, because drugs mostly cross biological membranes through passive transport, which strongly depends on their lipophilicity. Lipophilicity has been studied and applied as an important drug property for decades. This parameter was measured by means of RP-HPLC and expressed as logarithm of capacity factor k. The procedure was performed under isocratic conditions with methanol as an organic modifier in the mobile phase using an end-capped nonpolar C18 stationary RP column. The hydrophobic contributions (expressed as distributive parameters π) of individual substituents in C(2) position of 2-[(E)-2-substituted-ethenyl]-1,3-benzoxazole scaffold were predicted using ACD/Percepta ver. 2012 (Advanced Chemistry Development, Inc., Toronto, ON, Canada). The results are shown in Table 1 and the match of the experimental determined lipophilicity log k with calculated distributive parameters π is illustrated in Figure 1.

[2] = system: photosynthetic electron transport (PET) in spinach chloroplasts; assay: Inhibition of photosynthetic electron transport (PET) in spinach chloroplasts (DCPIP photoreduction); type: biochemical, Spinacia oleracea L.; settings: DCPIP as electron acceptor
Protocol: Chloroplasts were prepared from spinach (Spinacia oleracea L.) according to Masarovicova and Kralova. The inhibition of photosynthetic electron transport (PET) in spinach chloroplasts was determined spectrophotometrically (Genesys 6, Thermo Scientific), using an artificial electron acceptor 2,6-dichlorophenol-indophenol (DCPIP) according to Kralova et al., and the rate of photosynthetic electron transport was monitored as a photoreduction of DCPIP. The measurements were carried out in phosphate buffer (0.02 mol/L, pH 7.2) containing sucrose (0.4 mol/L), MgCl2 (0.005 mol/L), and NaCl (0.015 mol/L). The chlorophyll content was 30 mg/L in these experiments and the samples were irradiated (~100 W/m^2 with 10 cm distance) with a halogen lamp (250 W) using a 4 cm water filter to prevent warming of the samples (suspension temperature 22°C). The studied compounds were dissolved in DMSO due to their limited water solubility. […] The inhibitory efficiency of the studied compounds was expressed by IC50 values, that is, by molar concentration of the compounds causing 50% decrease in the oxygen evolution rate relative to the untreated control.

[3] = system: Mycobacterium tuberculosis My 331/88; assay: In vitro antimycobacterial evaluation (MIC, Sula semisynthetic medium); type: cell-based
M. avium My 330/88 = assay: as above; type: cell-based; settings: Mycobacterium avium
M. kansasii My 235/80 = assay: as above; type: cell-based; settings: Mycobacterium kansasii
[4] = system: aromatic amino acids in photosynthetic proteins of spinach chloroplasts; assay: Aromatic amino acids (AAA) fluorescence in spinach chloroplasts; type: biochemical, Spinacia oleracea L.; settings: increasing concentration (0, 3.2, 6.4, 9.6 μmol/L), excitation 275 nm
Protocol: The fluorescence emission spectra of aromatic amino acids (AAA) in spinach chloroplasts were recorded on fluorescence spectrophotometer F-2000 (Hitachi, Tokyo, Japan) using excitation wavelength λ ex = 275 nm, excitation slit 20 nm, and emission slit 10 nm. The phosphate buffer used for dilution of the chloroplast suspension was the same as described above. Due to low aqueous solubility the compounds were added to the chloroplast suspension in DMSO solution. The DMSO concentration in all samples was the same as in the control (10%). The chlorophyll concentration in the chloroplast suspension was 10 mg/L. The interaction of studied compounds with aromatic amino acids (AAA) occurring in photosynthetic proteins of spinach chloroplasts situated in PS II was monitored by the quenching of AAA fluorescence at 334 nm.

[5] = MY331/88, 336 h, 14d incubation
[6] = MY331/88, 504 h, 21d incubation
[7] = MY330/88, 336 h, 14d incubation
[8] = MY330/88, 504 h, 21d incubation
[9] = MY235/80, 336 h, 14d incubation, read-out: MIC MK
[10] = MY235/80, 504 h, 21d incubation, read-out: MIC MK
[11] = MY235/80, incubation time not stated, read-out: inhibitory activity (MIC) against M. kansasii

Structure (SMILES) | log k [1] | IC50 [2] | MIC [3, 5] [µM] | MIC [3, 6] [µM] | MIC (M. avium My 330/88; [7]) [µM] | MIC (M. avium My 330/88; [8]) [µM] | MIC (M. kansasii My 235/80; [9]) [µM] | MIC (M. kansasii My 235/80; [10]) [µM] | AAA fluorescence at 334 nm [4] | MIC (M. kansasii My 235/80; [11]) [µM]
C(=C\c1nc2ccccc2o1)/c1ccccc1 [Compound 1, 2-[(E)-2-Phenylethenyl]-1,3-benzoxazole] | 0.9409 | 149 µM | 125 (≈ 27.7 µg/mL) | 125 (≈ 27.7 µg/mL) | 62.5 (≈ 13.8 µg/mL) | 125 (≈ 27.7 µg/mL) | 125 (≈ 27.7 µg/mL) | 125 (≈ 27.7 µg/mL) | – | –
COc1ccccc1/C=C/c1nc2ccccc2o1 [Compound 2, 2-[(E)-2-(2-Methoxyphenyl)ethenyl]-1,3-benzoxazole] | 0.9325 | 76.3 µM | 125 (≈ 31.4 µg/mL) | 125 (≈ 31.4 µg/mL) | 62.5 (≈ 15.7 µg/mL) | 125 (≈ 31.4 µg/mL) | 125 (≈ 31.4 µg/mL) | 125 (≈ 31.4 µg/mL) | – | –
COc1ccc(/C=C/c2nc3ccccc3o2)cc1 [Compound 3, 2-[(E)-2-(4-Methoxyphenyl)ethenyl]-1,3-benzoxazole] | 0.9382 | 216 µM | 62.5 (≈ 15.7 µg/mL) | 62.5 (≈ 15.7 µg/mL) | 32 (≈ 8.04 µg/mL) | 62.5 (≈ 15.7 µg/mL) | 62.5 (≈ 15.7 µg/mL) | 125 (≈ 31.4 µg/mL) | strong decline | –
CSc1ccc(/C=C/c2nc3ccccc3o2)cc1 [Compound 4, 2-{(E)-2-[4-(Methylsulfanyl)phenyl]ethenyl}-1,3-benzoxazole] | 1.1225 | 199 µM | 62.5 (≈ 16.7 µg/mL) | 125 (≈ 33.4 µg/mL) | 62.5 (≈ 16.7 µg/mL) | 62.5 (≈ 16.7 µg/mL) | 62.5 (≈ 16.7 µg/mL) | 62.5 (≈ 16.7 µg/mL) | – | 62.5 (≈ 16.7 µg/mL)
Cc1ccc(/C=C/c2nc3ccccc3o2)cc1 [Compound 5, 2-[(E)-2-(4-Methylphenyl)ethenyl]-1,3-benzoxazole] | 1.1226 | 102 µM | 250 (≈ 58.8 µg/mL) | 250 (≈ 58.8 µg/mL) | 125 (≈ 29.4 µg/mL) | 250 (≈ 58.8 µg/mL) | 250 (≈ 58.8 µg/mL) | 500 (≈ 118 µg/mL) | – | –
Clc1ccc(/C=C/c2nc3ccccc3o2)cc1 [Compound 6, 2-[(E)-2-(4-Chlorophenyl)ethenyl]-1,3-benzoxazole] | 1.1226 and 1.1271 | 517 µM | 250 (≈ 63.9 µg/mL) | 250 (≈ 63.9 µg/mL) | 250 (≈ 63.9 µg/mL) | 500 (≈ 128 µg/mL) | 500 (≈ 128 µg/mL) | 500 (≈ 128 µg/mL) | – | 500 (≈ 128 µg/mL)
FC(F)(F)c1ccc(/C=C/c2nc3ccccc3o2)cc1 [Compound 7, 2-{(E)-2-[4-(Trifluoromethyl)phenyl]ethenyl}-1,3-benzoxazole] | 1.1317 | – | 125 (≈ 36.2 µg/mL) | 250 (≈ 72.3 µg/mL) | 125 (≈ 36.2 µg/mL) | 250 (≈ 72.3 µg/mL) | 250 (≈ 72.3 µg/mL) | 500 (≈ 145 µg/mL) | – | –
C(=C\c1nc2ccccc2o1)/c1ccc2c(c1)CCO2 [Compound 8, 2-[(E)-2-(2,3-Dihydro-1-benzofuran-5-yl)ethenyl]-1,3-benzoxazole] | 0.9397 | 131 µM | 62.5 (≈ 16.5 µg/mL) | 62.5 (≈ 16.5 µg/mL) | 32 (≈ 8.43 µg/mL) | 32 (≈ 8.43 µg/mL) | 62.5 (≈ 16.5 µg/mL) | 250 (≈ 65.8 µg/mL) | – | –
C(=C\c1nc2ccccc2o1)/c1ccco1 [Compound 9, 2-[(E)-2-(Furan-2-yl)ethenyl]-1,3-benzoxazole] | – | 224 µM | 62.5 (≈ 13.2 µg/mL) | 125 (≈ 26.4 µg/mL) | 62.5 (≈ 13.2 µg/mL) | 125 (≈ 26.4 µg/mL) | 125 (≈ 26.4 µg/mL) | 125 (≈ 26.4 µg/mL) | – | –
CCc1ccc(/C=C/c2nc3ccccc3o2)o1 [Compound 10, 2-[(E)-2-(5-Ethylfuran-2-yl)ethenyl]-1,3-benzoxazole] | 1.0702 | 122 µM | 250 (≈ 59.8 µg/mL) | 250 (≈ 59.8 µg/mL) | 250 (≈ 59.8 µg/mL) | 250 (≈ 59.8 µg/mL) | 62.5 (≈ 15 µg/mL) | 250 (≈ 59.8 µg/mL) | – | –
C(/C=C/c1nc2ccccc2o1)=C\c1ccccc1 [Compound 11, 2-[(1E,3E)-4-Phenylbuta-1,3-dien-1-yl]-1,3-benzoxazole] | – | 778 µM | 125 (≈ 30.9 µg/mL) | 250 (≈ 61.8 µg/mL) | 250 (≈ 61.8 µg/mL) | 500 (≈ 124 µg/mL) | 500 (≈ 124 µg/mL) | 500 (≈ 124 µg/mL) | – | 500 (≈ 124 µg/mL)
COc1ccc(/C=C/C=C/c2nc3ccccc3o2)cc1 [Compound 12, 2-[(1E,3E)-4-(4-Methoxyphenyl)buta-1,3-dien-1-yl]-1,3-benzoxazole] | 1.1394 | 351 µM | 125 (≈ 34.7 µg/mL) | 250 (≈ 69.3 µg/mL) | 125 (≈ 34.7 µg/mL) | 125 (≈ 34.7 µg/mL) | 125 (≈ 34.7 µg/mL) | 250 (≈ 69.3 µg/mL) | – | –
CN(C)C(=O)Nc1ccc(Cl)c(Cl)c1 [DCMU, 3-(3,4-dichlorophenyl)-1,1-dimethylurea, reference compound] | – | ~1.9 µM and 1.9 µM | – | – | – | – | – | – | – | –
NNC(=O)c1ccncc1 [INH, isoniazid, reference compound] | – | – | 0.5 (≈ 0.0686 µg/mL) | 0.5 (≈ 0.0686 µg/mL) | > 250 | > 250 | > 250 | > 250 | – | –
